≈ marks a conversion by molar mass, not a printed value. Read-outs that look alike come from different tables or passages of the source.
Columns and labels:
[1] = tested on: Plasmodium falciparum 3D7 strain; test: In vitro susceptibility assay of P. falciparum, SYBR Green I; format: cell-based; conditions: for antimalarial activity (in words): P. falciparum 3D7; for IC50: Plasmodium falciparum
Procedure: The principle of the in vitro susceptibility test to malaria is to assess the degree of development of parasites P. falciparum in the presence of different concentrations of the compounds.
In the present disclosure, the antimalarial activity was also evaluated. Each compound was lyophilized and solubilized in DMSO (Sigma-Aldrich) to obtain a final concentration of 5 mM. Some intermediate dilutions were made to achieve the final concentration of 10 μM in the first well of the plate.
In an embodiment, the culture of P. falciparum was carried out as follows. […] Parasites were cultivated at 5% hematocrit, 37° C. and atmosphere with 5% of CO2, human serum was replaced with 0.5% AlbuMAXII (Invitrogen™) in the culture medium. Synchronized cultures were obtained by treatments with a 5% (m/v) solution of D-sorbitol (Sigma-Aldrich).
In the present disclosure, the in vitro susceptibility assay of P. falciparum using SYBR Green I was carried out as follows. […] Briefly, early ring stage parasites (>80% of rings, 3% haematocrit and 1% parasitaemia) were tested in duplicate in a 96-well plate and incubated with the compounds for 48 h (37° C., 5% CO2), parasite growth was assessed with SYBR Green I (Thermo Fisher Scientific). Each compound was tested in concentrations ranging from 10 to 0.001 μM. Fluorescence intensity was measured with a microplate reader with excitation and emission wavelengths of 485 and 535 nm, respectively, and analysed by nonlinear regression using GraphPad Prism 5 demo version to determine

[2] = tested on: healthy/non-parasitized erythrocytes; test: Hemotoxicity in vitro (hemolysis assay); format: cell-based, human; conditions: at ≤10 μM
Procedure: In an embodiment, the evaluation of hemotoxicity in vitro was performed as follows. The in vitro hemolysis assay evaluates the release of hemoglobin in the medium (as an indicator of lysis of erythrocytes) after exposure to the test compounds.
In the present disclosure, the evaluation of hemotoxicity in vitro was performed as follows. In a 96-flat bottom plate 3% HTC, 20 μL of 20% Triton X-100, and 20 μL of PBS or RPMIc in 2% DMSO was added. Compounds were tested in a 1:4 serial dilution in concentrations ranging from 10 μM to 0.04 μM. After the incubation of 60 minutes, the plate was centrifuged at 2000 rpm for 5 minutes. 100 mL of Supernatant was transferred to a flat bottom plate. The absorbance reading was made at 450 nm in a Mode (Triad, Dynex Technologies). Two independent tests were carried out in triplicate. The results are presented in the form of a percentage of hemolysis-% hemolysis, obtained by the following formula; % Hemolysis=ABS (sample)/abs (C+)×100. Whereas C+ is a Triton x-100 to 20% solution RPMIc.

hemozoin (β-hematin) = test: Inhibition of polymerization of hemozoin (β-hematin) in vitro; conditions: 12 and 16 at 48.0, 24.0, 12.0 μM; 31 at 96.0, 48.0, 24.0 μM; 24 h
V79 cells = conditions: for DL50: 24 h; for SI (Selectivity Index): calculated by LD50/IC50 (V79 / P. falciparum 3D7)
Procedure: In the present disclosure, the cytotoxicity in vitro against mammalian cell was carried out as follows. Cytotoxicity was assessed on the mammalian cell line V79 (Chinese hamster lung), using an MTT based assay, as previously described [38B]. Tests were conducted in triplicate for each compound, at a range of concentrations (800 μM to 0.0512 μM), and with culture media containing 0.5% DMSO (no drug control); incubation time 24 h. Absorbance was read at 570 nm on a multi-mode microplate reader to produce a log dose-dependence curve. The LD50 value for each compound was estimated by non-linear interpolation of the dose-dependence curve (GraphPad Software).

[3] = tested on: Staphylococcus aureus ATCC 29213; test: MIC/MBC broth dilution (CLSI), S. aureus reference strain; format: cell-based; conditions: S. aureus ATCC 29213
From the text: (§1) In the present disclosure, two Gram-positive—Staphylococcus aureus ATCC 29213 and Enterococcus faecalis ATCC […] and two Gram-negative—Escherichia coli ATCC 25922 and Pseudomonas aeruginosa ATCC 27853—reference bacterial strains were used. When it was possible to determine a minimal inhibitory concentration (MIC) value for these strains, clinically relevant strains were also used. These included methicillin-resistant S. uareus (MRSA) 66/1, isolated from public buses, as well as a isolate sensitive to the most commonly used antibiotic families (S. aureus 40/61/24) and two vancomycin-resistant Enterococcus (VRE) strains isolated from river water, E. faecalis B3/101 and E. faecalis A5/102, which is sensitive to ampicillin. Frozen stocks of all strains were grown on Mueller-Hinton agar (MH-BioKar Diagnostics, Allone, France) at 37° C. for 24 h. All bacterial strains were sub-cultured on MH agar and incubated overnight at 37° C. before each assay, in order to obtain fresh cultures.
(§2) An initial screening of the antibacterial activity of the compounds was performed by the Kirby-Bauer disk diffusion method, as recommended by the Clinical and Laboratory Standards institute (CLSI). Briefly, sterile 6 mm blank paper disks (Oxoid, Basingstoke, England) impregnated with 15 μg of each compound were placed on inoculated MH agar plates. A blank disk with DMSO was used as a negative control. MH inoculated plates were incubated for 18-20 hours at 37° C. At the end of the incubation, the inhibition halos where measured. The minimal inhibitory concentration (MIC) was used to determine the antibacterial activity of each compound, in accordance with the recommendations of the CLSI. Two-fold serial dilutions of the compounds were prepared in Mueller-Hinton Broth 2 (MHB2-Sigma-Aldrich, St. Louis, Mo., USA) within the concentration range of 0.062-64 μg/mL. Cefotaxime (CTX) ranging between 0.031-16 μg/mL was used as a control. Sterility and growth controls were included in each assay. Purity check and colony counts of the inoculum suspensions were also performed in order to ensure that the final inoculum density closely approximates the intended number ([…]). The MIC was determined as the lowest concentration at which no visible growth was observed. The minimal bactericidal concentration (MBC) was assessed by spreading 10 μL of culture collected from wells showing no visible growth on MH agar plates. The MBC was determined as the lowest concentration at which no colonies grew after 16-18 hours incubation at 37° C. These assays were performed in duplicate.

E. faecalis ATCC 29212 = test: MIC/MBC broth dilution (CLSI), E. faecalis reference strain; format: cell-based, Enterococcus faecalis; conditions: Enterococcus faecalis
From the text: as §1, §2

S. aureus 66/1 (MRSA) = test: MIC/MBC broth dilution (CLSI), MRSA; format: cell-based; conditions: Staphylococcus aureus
From the text: as §1, §2

S. aureus 40/61/24 = test: MIC/MBC broth dilution (CLSI), sensitive clinical isolate; format: cell-based; conditions: Staphylococcus aureus
From the text: as §1, §2

hemozoin = conditions: trophozoite stage; cited from earlier work
P. falciparum 3D7 strain = conditions: cited from earlier work
Enterococcus faecalis = conditions: cited from earlier work
Staphylococcus aureus = conditions: cited from earlier work
Vibrio harvevi = conditions: cited from earlier work
[4] = P. falciparum (3D7), 48 h, read-out: IC50

In the case of `CC(C)[C@@H]1NC(=O)[C@@H](Cc2c[nH]c3ccccc23)n2c1nc1ccccc1c2=O` [Compound 12, fiscalin B], the “antimalarial activity (in words)” value [1] is reported as “highest antimalarial activity”, the IC50 [1, 4] is reported as 100 ± 20 nM and the “hemolytic activity (in words)” value [2] is reported as “no hemolytic activity”. For the same molecule, the “inhibition of the polymerization of β-hematin in vitro (in words)” value (from here on “inhibition of the polymerization … (in words)”) (hemozoin (β-hematin)) was “did not show to inhibit”, the DL50 (V79 cells; Chinese hamster) was 1.91 ± 0.44 µM and the “SI (Selectivity Index)” value (V79 cells) was 19.
With `CC(C)C[C@@H]1NC(=O)[C@@H](Cc2c[nH]c3ccccc23)n2c1nc1ccccc1c2=O` [Compound 16] the “antimalarial activity (in words)” value [1] was “highest antimalarial activity”, the IC50 [1, 4] was 50 ± 20 nM and the “hemolytic activity (in words)” value [2] was “no hemolytic activity”. For the same molecule, the “inhibition of the polymerization … (in words)” value (hemozoin (β-hematin)) was “did not show to inhibit”, the DL50 (V79 cells; Chinese hamster) was 1.78 ± 0.47 µM and the “SI (Selectivity Index)” value (V79 cells) was 34.
In the case of `CC(C)C[C@@H]1NC(=O)[C@@H](Cc2c[nH]c3ccccc23)n2c1nc1c(Cl)cc(Cl)cc1c2=O` [Compound 31, (1S, 4R)-4-((1H-indol-3-yl)methyl)-8,10-dichloro-1-isobutyl-1,2-dihydro-6H-pyrazino[2,1-b]quinazoline-3,6(4H)-dione], the “antimalarial activity (in words)” value [1] is reported as “highest antimalarial activity”, the IC50 ([1]; 3D7, 48 h) is reported as 200 nM and the “antibacterial (inhibitory) effect (in words)” value [3] is reported as “inhibitory effect”. For the same molecule, the MBC ([3]; Staphylococcus aureus, ATCC29213) was greater than 64 µg/mL, the MIC ([3]; Staphylococcus aureus, ATCC29213, read-out: MIC) was 4 µg/mL (≈ 8.52 µM) and the “hemolytic activity (in words)” value [2] was “no hemolytic activity”. For the same molecule, the MBC (E. faecalis ATCC 29212; ATCC29212) was greater than 64 µg/mL, the MIC (E. faecalis ATCC 29212; ATCC29212, read-out: MIC) was greater than 64 µg/mL and the “inhibition of the polymerization … (in words)” value (hemozoin (β-hematin)) was “did not show to inhibit”. For the same molecule, the DL50 (V79 cells; Mammalian cells (V79), MTT) was 14.00 ± 1.41 µM, the MBC (S. aureus 66/1 (MRSA)) was greater than 64 µg/mL and the MIC (S. aureus 66/1 (MRSA)) was 8 µg/mL (≈ 17 µM). It also gave an MIC (S. aureus 40/61/24; 40/61/24) of 8 µg/mL (≈ 17 µM) and an MBC (S. aureus 40/61/24; S. aureus 40/61/24) greater than 64 µg/mL.
For `O=C(C[C@H]1NCCC[C@@H]1O)Cn1cnc2ccccc2c1=O` [Febrifugine (9, FF), febrifugine], the “inhibition of the formation of hemozoin (in words)” value (hemozoin) is given as “significantly inhibits”.
In the case of `Clc1ccc2nccc(N3CCC(CN4CCC(c5c[nH]c6ccccc56)CC4)CC3)c2c1` [TCMDC-134281 (8), TCMDC-134281], the EC50 (P. falciparum 3D7 strain) is listed as 34 nM.
In the case of `CC(C)[C@@H]1NC(=O)[C@@H](C[C@]2(O)c3ccccc3N3C(=O)[C@@H](C)N[C@H]32)n2c1nc1ccccc1c2=O` [neofiscalin A (2), neofiscalin A], the MIC (Enterococcus faecalis) is listed as 8 µg/mL (≈ 16.9 µM) and the MIC (Staphylococcus aureus) is listed as 8 µg/mL (≈ 16.9 µM).
In the case of glyantypine [glyantypine (1)], the MIC (Vibrio harvevi) is given as 32 µg/mL.
